Assay results reported in patent US20150191484A1, “NOVEL COMPOUNDS HAVING A TETRACYCLIC IRIDOID SKELTON AND AN ANTI-TRYPANOSOMAL AGENT COMPRISING THE SAME AS AN ACTIVE INGREDIENT” (NATIONAL UNIVERSITY CORPORATION TOKYO MEDICAL AND DENTAL …, priority 2014, published 2015).
“Also recorded” adds a separate entry of the source.

Columns and labels:
[1] = MTT cytotoxicity assay, HF-19; assay type: cell-based, human; conditions: human, HF-19 normal fibroblast cells; HF-19 normal fibroblast, 48 h, MTT
Method: (§1) The cytotoxic activity of natural products against mammalian cells is an important point in the search for active compounds with biological activity. […] In order to confirm the selective and potent anti-trypanosomal activity of ML-2-2 and ML-2-3, we examined their cytotoxicity in a panel of human cell lines including two human fibroblastic and 8 human cancer-derived cell lines. Cells were seeded in 96-well microplates and incubated with ML-2-2 and ML-2-3 for 48 h at 37° C. in a 5% CO2 humidified incubator. The viabilities of cells were determined with the MTT (3-(4,5-dimethylthiazol-2-yl)-2-5-diphenyltetrazolium bromide) assay. The selectivity index (SI) was determined using the following equation: IC50 against human cells/IC50 against T. brucei. The IC50 values of ML-2-3 were higher than those of ML-2-2 in all the cell lines examined. […] The SI of ML-2-2 indicates values below 1.00 in most cell lines. On the other hand, SI values of ML-2-3 were much higher than those of ML-2-2 in all tested cell lines.

[2] = system: HF-19 (normal fibroblast); test: MTT cytotoxicity assay, HF-19; assay type: cell-based, human
Method: as §1

[3] = MTT cytotoxicity assay, LoVo; assay type: cell-based, human; conditions: human, LoVo colon cancer cells; LoVo colon cancer, 48 h, MTT
Method: as §1

LoVo (colon cancer) = test: MTT cytotoxicity assay, LoVo; assay type: cell-based, human; conditions: IC50 against LoVo / IC50 against T. brucei
Method: as §1

[4] = MTT cytotoxicity assay, HCT-15; assay type: cell-based, human; conditions: human, HCT-15 colon cancer cells; HCT-15 colon cancer, 48 h, MTT
Method: as §1

HCT-15 (colon cancer) = test: MTT cytotoxicity assay, HCT-15; assay type: cell-based, human
Method: as §1

[5] = MTT cytotoxicity assay, KATOIII; assay type: cell-based, human; conditions: human, KATOIII stomach cancer cells; KATOIII stomach cancer, 48 h, MTT
Method: as §1

KATOIII (stomach cancer) = test: MTT cytotoxicity assay, KATOIII; assay type: cell-based, human; conditions: IC50 against KATOIII / IC50 against T. brucei
Method: as §1

[6] = MTT cytotoxicity assay, THP-1; assay type: cell-based, human; conditions: human, THP-1 leukemia cells; THP-1 leukemia, 48 h, MTT
Method: as §1

THP-1 (leukemia) = test: MTT cytotoxicity assay, THP-1; assay type: cell-based, human; conditions: IC50 against THP-1 / IC50 against T. brucei
Method: as §1

Trypanosoma cells [7] = test: Multi-caspase apoptosis assay (FACS); assay type: cell-based, Trypanosoma brucei brucei; conditions: 5 μM
Method: (§2) The GUTat 3.1 strain of the bloodstream forms of T. b. brucei parasites was used for this study. Parasites were cultured in vitro according to the conditions established by Yabu et al, 1998.
(§3) Parasites were used when they reached a confluent concentration of 1×10^6 parasites/ml. Estimation of parasitemia was done with the Neubauer's counting chamber. Parasites were diluted to a concentration of 3×10^5 parasites/ml with HMI-9 medium and used for the various experiments.
This assay was performed to investigate multi-caspase signals as markers of apoptosis. Seeding and incubation of parasites were as for the other experiments. After 24 hours of incubation, 10% Caspase Reagent Working Solution was added to each well. The plate was incubated for 1 h at 37° C. under 5% CO2 in air. The plate was washed twice with 1× apoptosis wash buffer, centrifuged for 5-7 min and the supernatant aspirated off. Two hundred microlitres (200 μl) working solution of Caspase 7-AAD was added to each well and mixed thoroughly to re-suspend parasites. The plate was incubated for 10 min at room temperature and subjected to FACS analysis using, the Millipore guava easyCyte 5HT FACS machine for the sorting and estimation of apoptotic parasites according to the manufacturer's instructions.

Trypanosoma cells [8] = test: Cell cycle assay (FACS); assay type: cell-based, Trypanosoma brucei brucei
Method: as §2, §3
This assay was performed to investigate any abnormal change in the parasites' cell cycle which may be caused by extracts/compounds with trypanocidal effect. […] The parasites were collected and transferred into 15 ml centrifuge tubes and centrifuged at 1700 rpm for 10 min, after which the supernatant was discarded. The pelleted parasites were re-suspended in 5 ml PBS solution and vortexed to form a suspension. The parasite suspension was centrifuged at 1700 rpm for 10 min and the supernatant discarded. The pelleted parasites were re-suspended in 1.5 ml of PBS and vortexed thoroughly before adding 3.5 ml absolute EtOH gradually to a final volume of 5 ml 70% EtOH. The parasites were then fixed at −20° C. for 1 h. The cell suspension was then centrifuged at 1700 rpm for 10 min and the supernatant discarded. Pelleted parasites were re-suspended in 200 μl of Guava Cell Cycle reagent, which has Propidium Iodide as its main constituent and incubated at room temperature for 30 min. The solution was transferred to wells of 96-well plate. The well contents were then subjected to FACS analysis using the Millipore guava easyCyte 5HT FACS machine, for the sorting of parasites according to the manufacturer's instructions.

various human cells = test: MTT cytotoxicity, panel of human cell lines (summary); assay type: cell-based; conditions: IC50 against human cells / IC50 against Trypanosoma
From the text: ML-2-3 has low cytotoxicity on mammalian cells. The cytotoxicity of ML-2-3 is very low compared to the cytotoxicity of ML-2-2. The cytotoxicity of ML-2-2 and ML-2-3 on mammalian cells can be compared as IC50 value. The usefulness of the compounds for a therapeutic agent for mammals including humans can be compared by a selectivity index (SI). For a compound to be accepted as a useful therapeutic agent for mammals means that the compound should have high anti-trypanosomal activity but low cytotoxicity on mammals. The selectivity index (SI) is represented by an equation: IC50 of cytotoxicity on mammalian cells/IC50 of anti-trypanosomal activity. In particular, it is represented by an equation: IC50 against human cells/IC50 against Trypanosoma such as Trypanosoma brucei. […] IC50 (μM) of ML-2-3 against HF-19 and HCT-15 is more than 50, which means that ML2-3 is non-toxic at the highest assayed dose in HF-19 and HCT-15. […]
The cytotoxic activity of natural products against mammalian cells is an important point in the search for active compounds with biological activity. […] The viabilities of cells were determined with the MTT (3-(4,5-dimethylthiazol-2-yl)-2-5-diphenyltetrazolium bromide) assay. The selectivity index (SI) was determined using the following equation: IC50 against human cells/IC50 against T. brucei. […]

SMILES: COc1cc(/C=C2/C(=O)O[C@]34C=C[C@@H]5C(C(=O)O)=CO[C@H](O[C@@H]23)[C@@H]54)ccc1O [ML-2-3, (3aS,4aR,4a^1S,7aS,9aS,3E)-3-(4-hydroxy-3-methoxybenzylidene)-2-oxo-2,3,3a,4a,4a^1,7a-hexahydro-1,4,5-trioxadicyclopenta[a,hi]indene-7-carboxylic acid]
- IC50 at 48 h [1]: > 50 µM
- cytotoxicity (in words) ([2]; HF-19, highest assayed dose): non-toxic at the highest assayed doses
- SI (selectivity index) ([2]; IC50 against HF-19 / IC50 against T. brucei): >13.33
- IC50 at 48 h [3]: 30.4 µM
- SI (selectivity index) (LoVo (colon cancer)): 8.10
- IC50 at 48 h [4]: > 50 µM
- cytotoxicity (in words) (HCT-15 (colon cancer); HCT-15, highest assayed dose): non-toxic at the highest assayed doses
- SI (selectivity index) (HCT-15 (colon cancer); IC50 against HCT-15 / IC50 against T. brucei): >13.33
- IC50 at 48 h [5]: 24.8 µM
- SI (selectivity index) (KATOIII (stomach cancer)): 6.62
- IC50 at 48 h [6]: 15.4 µM
- SI (selectivity index) (THP-1 (leukemia)): 4.11
- late-apoptosis cells (Trypanosoma cells [7]; control cells 0.40%): 4.2%
- mid-apoptosis cells (Trypanosoma cells [7]; control cells 1.05%): 7%
- cells with low DNA content (sub-G1 phase) (Trypanosoma cells [8]; 15 μM): a large proportion of cells with low DNA content were detected as sub-G1 phase
- numbers of cells in the G2 and M phase of cell cycle (Trypanosoma cells [8]; four times of IC50: 15 μM ML-2-3, 5 μM ML-2-2, 24 hours): significant decrease; also recorded: caused alteration of G2/M phase
- selectivity index (SI), range over the human cell lines (various human cells): ≥ 3.2 to more than 13
